Laboratory results reported in patent US9944641B2, “Isoquinolinone derivatives useful in the treatment of cancer” (PIERRE FABRE MEDICAMENT, priority 2014, dated 2018).

How the values were obtained:
FLT3 D835Y = molecular target: T1, FLT3 D835Y (Homo sapiens, UniProt P36888, D835Y); experiment: Lanthascreen TR-FRET enzymatic assay, FLT3 D835Y; type: binding; conditions: 1 hour at 25° C., 1% DMSO, read-out: Enzymology (IC50) FLT3 D835Y
T1 construct: purchased Merck Millipore 14-610
T1 sequence (P36888 27-993 D835Y): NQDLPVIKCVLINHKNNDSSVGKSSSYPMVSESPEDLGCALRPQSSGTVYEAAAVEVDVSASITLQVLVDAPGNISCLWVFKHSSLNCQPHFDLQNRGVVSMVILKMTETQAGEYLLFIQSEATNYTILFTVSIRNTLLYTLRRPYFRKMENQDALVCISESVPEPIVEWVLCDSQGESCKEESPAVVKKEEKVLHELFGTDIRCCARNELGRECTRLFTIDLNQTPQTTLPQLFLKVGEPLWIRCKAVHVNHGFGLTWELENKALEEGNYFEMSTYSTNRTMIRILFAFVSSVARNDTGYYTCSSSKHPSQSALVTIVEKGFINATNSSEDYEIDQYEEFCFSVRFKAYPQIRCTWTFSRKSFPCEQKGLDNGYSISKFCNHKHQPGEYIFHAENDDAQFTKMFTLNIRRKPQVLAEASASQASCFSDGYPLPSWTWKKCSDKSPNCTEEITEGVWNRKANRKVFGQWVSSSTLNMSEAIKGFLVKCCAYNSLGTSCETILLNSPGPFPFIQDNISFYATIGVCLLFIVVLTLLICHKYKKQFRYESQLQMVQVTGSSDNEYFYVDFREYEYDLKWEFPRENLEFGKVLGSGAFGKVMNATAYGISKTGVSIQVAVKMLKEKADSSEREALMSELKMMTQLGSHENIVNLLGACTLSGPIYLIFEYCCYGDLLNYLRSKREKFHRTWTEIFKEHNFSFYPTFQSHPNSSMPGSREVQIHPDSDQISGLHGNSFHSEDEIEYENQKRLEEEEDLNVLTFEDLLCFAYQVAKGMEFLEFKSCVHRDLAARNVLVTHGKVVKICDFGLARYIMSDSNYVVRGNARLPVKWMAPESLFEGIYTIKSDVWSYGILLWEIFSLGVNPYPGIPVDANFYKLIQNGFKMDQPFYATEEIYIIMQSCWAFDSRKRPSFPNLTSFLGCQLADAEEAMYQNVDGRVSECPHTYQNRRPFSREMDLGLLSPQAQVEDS
Experimental: (§1) Recombinant FLT3 (#PV3182), JAK2 (#PV4210) and JAK3 (#PV3855) enzymes were purchased from Life Technologies. FLT3-ITD (#0778-0000-1) and FLT3^D835Y (#14-610) were respectively purchased from Proquinase and Merck Millipore.
(§2) The assays were conducted in 384-well plates based on Life Technologies Lanthascreen® TR-FRET methodologies.
FLT3-ITD or FLT3^D835Y assays: 15 nM of FLT3-ITD or FLT3^D835Y, 3 nM of the 236 kinase tracker (Life Technologies #PV5592) and 6 nM of the Europium-tagged anti-GST Lanthascreen® antibody are mixed into 15 μL total volume reaction mixture.
(§3) IC50s were determined from a 8-point dose-response curve spanning a >1000 fold concentration range using a 10 mM compound solution stock into pure DMSO (Sigma #D8418). The overall DMSO concentrations of tested solutions were 1%.
(§4) IC50s were generated with the software Prism (Graphpad).

JAK3 = molecular target: T2, JAK3 (Homo sapiens, UniProt P52333); experiment: Lanthascreen TR-FRET enzymatic assay, JAK3; type: binding; conditions: recombinant JAK3, 1 hour at 25° C., 1% DMSO; read-out: Enzymology (IC50) JAK3
T2 construct: purchased Life Technologies PV3855
T2 sequence (P52333 1-1124): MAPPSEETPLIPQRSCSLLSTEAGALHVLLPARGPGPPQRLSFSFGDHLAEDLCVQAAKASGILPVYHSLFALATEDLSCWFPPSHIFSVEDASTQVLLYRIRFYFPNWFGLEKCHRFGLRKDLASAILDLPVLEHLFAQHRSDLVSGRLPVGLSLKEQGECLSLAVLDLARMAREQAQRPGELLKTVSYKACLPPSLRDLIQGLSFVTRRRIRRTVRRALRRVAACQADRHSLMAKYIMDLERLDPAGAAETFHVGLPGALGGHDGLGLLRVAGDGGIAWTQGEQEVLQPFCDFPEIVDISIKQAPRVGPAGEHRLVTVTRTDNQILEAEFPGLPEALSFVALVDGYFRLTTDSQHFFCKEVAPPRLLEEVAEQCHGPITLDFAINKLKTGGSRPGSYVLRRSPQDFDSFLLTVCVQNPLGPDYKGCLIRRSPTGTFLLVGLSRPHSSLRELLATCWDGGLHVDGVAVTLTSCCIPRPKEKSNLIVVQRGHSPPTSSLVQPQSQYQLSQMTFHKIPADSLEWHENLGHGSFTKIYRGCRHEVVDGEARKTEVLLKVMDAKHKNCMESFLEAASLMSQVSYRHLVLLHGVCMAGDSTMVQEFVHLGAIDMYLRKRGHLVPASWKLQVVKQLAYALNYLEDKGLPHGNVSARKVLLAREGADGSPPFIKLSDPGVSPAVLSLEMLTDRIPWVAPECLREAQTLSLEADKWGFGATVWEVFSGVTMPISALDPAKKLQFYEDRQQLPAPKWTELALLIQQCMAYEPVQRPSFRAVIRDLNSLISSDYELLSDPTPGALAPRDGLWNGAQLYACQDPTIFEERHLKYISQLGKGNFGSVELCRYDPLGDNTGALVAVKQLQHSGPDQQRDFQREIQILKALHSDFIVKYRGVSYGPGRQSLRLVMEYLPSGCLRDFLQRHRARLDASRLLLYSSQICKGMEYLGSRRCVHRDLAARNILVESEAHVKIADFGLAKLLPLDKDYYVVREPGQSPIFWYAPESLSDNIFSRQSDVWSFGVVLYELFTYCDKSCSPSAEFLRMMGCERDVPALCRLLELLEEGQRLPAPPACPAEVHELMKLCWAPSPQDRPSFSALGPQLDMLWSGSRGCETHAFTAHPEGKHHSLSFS
Experimental: as §1, §2
JAK3 assays: 15 nM of […], 3 nM of the 236 kinase tracker (Life Technologies #PV5592) and 6 nM of the Europium-tagged anti-GST Lanthascreen® antibody are mixed into 15 μL total volume reaction mixture.
as §3, §4

Compound	IC50 (FLT3 D835Y)	IC50 (JAK3)
Cn1c(=O)c2cc(N)ccc2c2nc(Nc3ccc(OCCN4CCCC4)cc3)ncc21 [Compound C34, 8-amino-5-methyl-2-((4-(2-(pyrrolidin-1-yl)ethoxy)phenyl)amino)pyrimido[5,4-c]isoquinolin-6(5H)-one]	< 25 nM	100 to 1000 nM
COc1cc2c(cc1N)c(=O)n(C)c1cnc(Nc3ccc(OCCN4CCCC4)cc3)nc21 [Compound C42, 8-amino-9-methoxy-5-methyl-2-((4-(2-(pyrrolidin-1-yl)ethoxy)phenyl)amino) pyrimido[5,4-c]isoquinolin-6(5H)-one]	< 25 nM	100 to 1000 nM
CN1CCN(c2ccc(Nc3ncc4c(n3)c3ccc(N)cc3c(=O)n4C)cc2)CC1 [Compound C4, 8-amino-5-methyl-2-((4-(4-methylpiperazin-1-yl)phenyl)amino)pyrimido[5,4-c]isoquinolin-6(5H)-one]	< 25 nM	25 to 100 nM
Cn1c(=O)c2cc(N)ccc2c2nc(Nc3cccc(N)c3)ncc21 [Compound C2, 8-amino-2-((3-aminophenyl)amino)-5-methylpyrimido[5,4-c]isoquinolin-6(5H)-one]	< 25 nM	25 to 100 nM
CN1CCN(c2cccc(Nc3ncc4c(n3)c3ccc(N)cc3c(=O)n4C)c2)CC1 [Compound C6, 8-amino-5-methyl-2-((3-(4-methylpiperazin-1-yl)phenyl)amino)pyrimido[5,4-c]isoquinolin-6(5H)-one]	< 25 nM	25 to 100 nM

Results, then the compound that gave them:

IC50 (FLT3 D835Y)	IC50 (JAK3)	Compound
25 to 100 nM	100 to 1000 nM	COc1cc2c(cc1N)c(=O)n(C)c1cnc(Nc3cc(N)cc(F)c3)nc21 [Compound C26, 8-amino-2-((3-amino-5-fluorophenyl)amino)-9-methoxy-5-methylpyrimido [5,4-c]isoquinolin-6(5H)-one]
< 25 nM	25 to 100 nM	COc1cc2c(cc1N)c(=O)n(C)c1cnc(Nc3ccc(N4CCN(C)CC4)cc3)nc21 [Compound C10, 8-amino-9-methoxy-5-methyl-2-((4-(4-methylpiperazin-1-yl)phenyl)amino) pyrimido[5,4-c]isoquinolin-6(5H)-one]
25 to 100 nM	100 to 1000 nM	COc1cc2c(cc1N)c(=O)n(C)c1cnc(Nc3ccc(F)c(N)c3)nc21 [Compound C28, 8-amino-2-((3-amino-4-fluorophenyl)amino)-9-methoxy-5-methylpyrimido [5,4-c]isoquinolin-6(5H)-one]
< 25 nM	25 to 100 nM	Cn1c(=O)c2cc(N)ccc2c2nc(Nc3ccc(F)c(N)c3)ncc21 [Compound C22, 8-amino-2-((3-amino-4-fluorophenyl)amino)-5-methylpyrimido[5,4-c]isoquinolin-6(5H)-one]
